Data reported in ChEMBL document CHEMBL4371082.
The source made the active and inactive calls.

What was measured:
[1] = Antioxidant activity assessed as DPPH free radical scavenging activity at 20 uM; format: functional
[2] = Antioxidant activity assessed as ABTS radical scavenging activity at 20 uM measured at 30 sec interval over 60 mins; format: functional
Saccharomyces cerevisiae [3] = assay: Protection against 3-copies of HA-tagged human alpha-syn gene induced oxidative stress in yeast BC300 assessed as reduction in reactive oxygen species level in SG solid agar medium by dihydroethidium dye based fluorescence assay; format: functional, organism-based
Saccharomyces cerevisiae [4] = assay: Protection against 3-copies of HA-tagged human alpha-syn gene induced mitochondrial dysfunction in yeast BC300 assessed as prevention of mitochondrial membrane potential loss in SG solid agar medium by JC-10 dye based fluorescence assay; format: functional, organism-based
Saccharomyces cerevisiae [5] = assay: Protection against copy of c-myc-tagged human bax gene induced oxidative stress in yeast BC300 assessed as reactive oxygen species level in SG liquid medium by dihydroethidium dye based fluorescence assay; format: functional, organism-based
Saccharomyces cerevisiae [6] = assay: Protection against copy of c-myc-tagged human bax gene induced mitochondrial dysfunction in yeast BC300 assessed as prevention of mitochondrial membrane potential loss in SG liquid medium by JC-10 dye based fluorescence assay; format: functional, organism-based

Measured: Activity

COc1ccc([C@@H](O)CNC(=O)/C=C/c2ccccc2)cc1
active: all assays above

O=C1O[C@H]([C@@H](O)CO)C(O)=C1O
active: [1] | [2]
